Converted amounts (≈) assume the structure as drawn.
Key:
THP-1 = experiment: Cytotoxicity against human THP-1 cells assessed as reduction in cell viability by DAPI staining based assay; format: functional
[1] = Modulation of CD33 pre-mRNA splicing in human K562 cells assessed as induction of exon 2 skipping measured after 16 to 24 hrs by Nano-Luciferase counter screen assay; format: cell-based
[2] = Modulation of CD33 pre-mRNA splicing in human K562 cells assessed as induction of exon 2 skipping measured after 18 to 24 hrs by Nano-Luciferase reporter assay; format: cell-based
K562 = experiment: Modulation of CD33 pre-mRNA splicing in human K562 cells assessed as induction of exon 2 skipping at 25 uM measured after 18 to 24 hrs by Nano-Luciferase reporter assay; format: cell-based; settings: filed as modulator, time 18-24 hrs
[3] = Increase in CD11c level in human THP-1 cell surface incubated for 48 to 72 hrs by high content imaging assay; format: functional
[4] = target: Proprotein convertase subtilisin/kexin type 9 (Homo sapiens, UniProt Q8NBP7); experiment: Inhibition of PCSK9 translation in human THP-1 cells by AlphaLISA assay; format: cell-based
Chain of Proprotein convertase subtilisin/kexin type 9 (Q8NBP7 31-152 limits assumed): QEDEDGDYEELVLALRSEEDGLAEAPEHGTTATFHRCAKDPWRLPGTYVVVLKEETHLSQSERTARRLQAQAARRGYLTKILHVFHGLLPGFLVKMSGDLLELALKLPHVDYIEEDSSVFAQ
Chain of Proprotein convertase subtilisin/kexin type 9 (Q8NBP7 153-692 limits assumed): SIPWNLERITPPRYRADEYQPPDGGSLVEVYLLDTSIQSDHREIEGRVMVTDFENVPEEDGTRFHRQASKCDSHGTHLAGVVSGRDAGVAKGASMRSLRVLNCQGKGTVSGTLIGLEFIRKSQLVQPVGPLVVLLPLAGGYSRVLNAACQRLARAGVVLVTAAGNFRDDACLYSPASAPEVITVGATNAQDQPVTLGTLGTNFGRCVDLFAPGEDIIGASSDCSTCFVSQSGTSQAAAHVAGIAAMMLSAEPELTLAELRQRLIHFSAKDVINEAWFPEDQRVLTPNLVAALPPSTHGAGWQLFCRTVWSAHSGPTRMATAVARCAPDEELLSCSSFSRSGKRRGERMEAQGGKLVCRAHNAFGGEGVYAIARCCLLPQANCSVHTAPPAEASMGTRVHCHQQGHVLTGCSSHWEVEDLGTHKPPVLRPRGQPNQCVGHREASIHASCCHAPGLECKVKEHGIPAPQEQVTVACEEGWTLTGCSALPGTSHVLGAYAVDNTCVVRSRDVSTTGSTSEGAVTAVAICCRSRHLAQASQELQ

[5] = […] level in human THP-1 cell surface incubated for 48 to 72 hrs by high content imaging assay; format: functional
[6] = […] level in human THP-1 cell surface at top concentration incubated for 48 to 72 hrs by high content imaging assay; format: functional; settings: time 48-72 hrs
[7] = target: T1, Voltage-gated inwardly rectifying potassium channel KCNH2 (Homo sapiens, UniProt Q12809); experiment: Inhibition of human ERG
T1 sequence (Q12809 whole entry): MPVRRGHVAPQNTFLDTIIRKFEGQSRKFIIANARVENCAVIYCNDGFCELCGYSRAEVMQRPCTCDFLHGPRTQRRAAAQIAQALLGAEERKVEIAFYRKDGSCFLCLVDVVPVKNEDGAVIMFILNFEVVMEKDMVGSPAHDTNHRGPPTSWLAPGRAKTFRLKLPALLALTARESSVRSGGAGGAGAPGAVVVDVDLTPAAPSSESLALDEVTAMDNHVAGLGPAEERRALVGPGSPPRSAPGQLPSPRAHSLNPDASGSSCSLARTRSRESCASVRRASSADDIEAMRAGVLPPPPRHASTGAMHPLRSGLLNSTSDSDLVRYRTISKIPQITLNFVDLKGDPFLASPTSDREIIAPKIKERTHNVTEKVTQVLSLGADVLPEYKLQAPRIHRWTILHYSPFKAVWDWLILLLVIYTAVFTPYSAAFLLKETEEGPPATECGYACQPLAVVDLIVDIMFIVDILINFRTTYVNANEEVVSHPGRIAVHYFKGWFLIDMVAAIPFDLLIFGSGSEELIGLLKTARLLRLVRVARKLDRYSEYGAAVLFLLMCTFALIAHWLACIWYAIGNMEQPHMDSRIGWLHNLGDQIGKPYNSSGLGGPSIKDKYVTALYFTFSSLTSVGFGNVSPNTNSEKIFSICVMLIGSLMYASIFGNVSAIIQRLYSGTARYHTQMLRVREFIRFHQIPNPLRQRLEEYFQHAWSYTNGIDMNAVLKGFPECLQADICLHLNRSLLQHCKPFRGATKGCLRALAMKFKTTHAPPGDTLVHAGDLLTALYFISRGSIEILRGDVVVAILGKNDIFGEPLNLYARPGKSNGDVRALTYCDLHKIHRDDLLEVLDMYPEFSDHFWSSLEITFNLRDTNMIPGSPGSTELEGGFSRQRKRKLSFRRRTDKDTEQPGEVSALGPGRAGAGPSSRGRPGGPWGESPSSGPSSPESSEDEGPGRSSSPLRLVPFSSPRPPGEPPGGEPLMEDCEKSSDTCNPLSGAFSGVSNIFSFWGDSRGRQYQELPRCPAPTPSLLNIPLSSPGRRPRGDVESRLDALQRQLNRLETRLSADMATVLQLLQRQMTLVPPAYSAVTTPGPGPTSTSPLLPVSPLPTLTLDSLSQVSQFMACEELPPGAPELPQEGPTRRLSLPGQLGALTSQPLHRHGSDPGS

Cannabinoid receptor 1 = Cannabinoid receptor 1 (Homo sapiens, UniProt P21554); experiment: Agonist activity at cannabinoid receptor 1 (unknown origin) expressed in cells measured after 90 mins by beta-arrestin recruitment assay; format: functional, cell-based
D(1A) dopamine receptor = D(1A) dopamine receptor (Homo sapiens, UniProt P21728); experiment: Agonist activity at dopamine D1 receptor (unknown origin) expressed in cells assessed as change in fluorescence measured after 24 hrs by FLIPR assay; format: functional, cell-based
Chain of D(1A) dopamine receptor (P21728 whole entry): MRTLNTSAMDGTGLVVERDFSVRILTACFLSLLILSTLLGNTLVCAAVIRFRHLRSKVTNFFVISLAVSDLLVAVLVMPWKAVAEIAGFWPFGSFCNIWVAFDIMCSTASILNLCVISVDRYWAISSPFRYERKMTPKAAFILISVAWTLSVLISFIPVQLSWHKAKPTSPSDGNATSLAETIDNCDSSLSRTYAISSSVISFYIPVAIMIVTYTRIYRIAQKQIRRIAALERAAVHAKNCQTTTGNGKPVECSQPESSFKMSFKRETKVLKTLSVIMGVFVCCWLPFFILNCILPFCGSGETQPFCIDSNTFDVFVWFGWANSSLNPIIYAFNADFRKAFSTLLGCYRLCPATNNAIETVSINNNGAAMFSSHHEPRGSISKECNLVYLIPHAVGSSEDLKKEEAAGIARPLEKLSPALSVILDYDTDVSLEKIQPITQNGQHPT

[8] = target: Bromodomain-containing protein 4 (Homo sapiens, UniProt O60885); experiment: Inhibition of His-tagged BRD4 (unknown origin) using tetra-acetylated histone H4 peptide as substrate by fluorescent polarization binding assay
[9] = target: cGMP-specific 3',5'-cyclic phosphodiesterase (Homo sapiens, UniProt O76074); experiment: Inhibition of PDE5A1 (unknown origin) assessed as conversion of cAMP to AMP measured after 30 mins by YSi scintillation proximity assay
[10] = target: 3',5'-cyclic-AMP phosphodiesterase 4D (Homo sapiens, UniProt Q08499); experiment: Inhibition of PDE4D3 (unknown origin) assessed as conversion of cAMP to AMP measured after 30 mins by YSi scintillation proximity assay
Chain of 3',5'-cyclic-AMP phosphodiesterase 4D (Q08499 whole entry): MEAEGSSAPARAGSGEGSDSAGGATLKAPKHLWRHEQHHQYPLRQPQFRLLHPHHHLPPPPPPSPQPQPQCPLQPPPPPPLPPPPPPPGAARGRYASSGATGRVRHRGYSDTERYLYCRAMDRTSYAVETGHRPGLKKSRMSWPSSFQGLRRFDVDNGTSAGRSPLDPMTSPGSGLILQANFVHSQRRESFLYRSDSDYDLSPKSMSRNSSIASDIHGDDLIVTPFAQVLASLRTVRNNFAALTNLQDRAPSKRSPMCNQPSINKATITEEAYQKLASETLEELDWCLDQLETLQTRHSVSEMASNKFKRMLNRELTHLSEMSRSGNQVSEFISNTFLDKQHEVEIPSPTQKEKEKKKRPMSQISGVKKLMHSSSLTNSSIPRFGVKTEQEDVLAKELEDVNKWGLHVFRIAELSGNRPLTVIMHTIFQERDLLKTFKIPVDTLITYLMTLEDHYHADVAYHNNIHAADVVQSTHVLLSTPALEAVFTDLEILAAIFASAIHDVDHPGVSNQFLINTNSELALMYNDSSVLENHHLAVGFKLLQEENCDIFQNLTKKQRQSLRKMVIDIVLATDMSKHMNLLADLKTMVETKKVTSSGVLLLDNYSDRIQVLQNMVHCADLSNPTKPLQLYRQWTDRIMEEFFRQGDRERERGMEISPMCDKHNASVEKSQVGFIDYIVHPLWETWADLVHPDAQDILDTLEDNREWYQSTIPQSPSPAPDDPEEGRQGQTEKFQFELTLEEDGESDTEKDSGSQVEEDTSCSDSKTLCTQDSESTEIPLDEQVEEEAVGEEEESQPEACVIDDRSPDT

[11] = target: Beta-2 adrenergic receptor (Homo sapiens, UniProt P07550); experiment: Agonist activity at adrenergic beta2 receptor (unknown origin) expressed in cells measured after 90 mins by beta-arrestin recruitment assay; format: functional, cell-based
[12] = target: 5-hydroxytryptamine receptor 2B (Homo sapiens, UniProt P41595); experiment: Agonist activity at serotonin 2B receptor (unknown origin) expressed in cells assessed as change in fluorescence measured after 24 hrs by FLIPR assay; format: functional, cell-based
[13] = Distribution coefficient, logD of compound at pH 7.4 by shake flask method; format: physicochemical; settings: octanol/water
[14] = target: T2, Muscarinic acetylcholine receptor M1 (Homo sapiens, UniProt P11229); experiment: Antagonist activity at muscarinic M1 receptor (unknown origin) expressed in cells assessed as change in fluorescence measured after 24 hrs by FLIPR assay; format: functional, cell-based
T2 sequence (P11229 whole entry): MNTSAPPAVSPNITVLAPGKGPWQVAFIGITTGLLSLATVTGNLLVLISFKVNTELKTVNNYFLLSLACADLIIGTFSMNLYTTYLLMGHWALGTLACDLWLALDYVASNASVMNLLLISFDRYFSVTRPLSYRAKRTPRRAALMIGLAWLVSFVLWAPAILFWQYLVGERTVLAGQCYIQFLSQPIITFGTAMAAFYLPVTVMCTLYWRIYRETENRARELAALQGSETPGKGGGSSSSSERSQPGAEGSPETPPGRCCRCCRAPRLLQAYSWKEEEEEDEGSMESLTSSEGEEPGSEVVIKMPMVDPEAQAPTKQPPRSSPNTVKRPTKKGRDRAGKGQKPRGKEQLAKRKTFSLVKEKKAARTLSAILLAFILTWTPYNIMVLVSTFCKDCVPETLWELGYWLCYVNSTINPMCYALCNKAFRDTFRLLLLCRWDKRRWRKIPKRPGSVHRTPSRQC

Histamine H1 receptor = Histamine H1 receptor (Homo sapiens, UniProt P35367); experiment: Agonist activity at histamine H1 receptor (unknown origin) expressed in cells assessed as change in fluorescence measured after 24 hrs by FLIPR assay; format: functional, cell-based
Chain of Histamine H1 receptor (P35367 whole entry): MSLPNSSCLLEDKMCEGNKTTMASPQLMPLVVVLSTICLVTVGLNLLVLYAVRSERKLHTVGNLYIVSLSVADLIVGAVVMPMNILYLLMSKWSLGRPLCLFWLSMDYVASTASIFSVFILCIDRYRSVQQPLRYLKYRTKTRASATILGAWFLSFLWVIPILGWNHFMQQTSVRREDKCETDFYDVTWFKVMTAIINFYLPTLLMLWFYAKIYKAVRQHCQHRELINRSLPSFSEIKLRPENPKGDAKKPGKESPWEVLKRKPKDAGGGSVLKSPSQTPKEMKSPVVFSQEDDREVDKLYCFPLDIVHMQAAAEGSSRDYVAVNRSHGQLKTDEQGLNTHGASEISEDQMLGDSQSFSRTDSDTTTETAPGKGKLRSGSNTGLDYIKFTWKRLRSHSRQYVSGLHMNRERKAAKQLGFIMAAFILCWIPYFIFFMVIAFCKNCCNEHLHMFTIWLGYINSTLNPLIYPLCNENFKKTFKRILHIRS

[15] = Inhibition of PDE3A1 (unknown origin) assessed as conversion of cAMP to AMP measured after 30 mins by YSi scintillation proximity assay; parameters: species or system Homo sapiens
[16] = Apparent permeability in MDCK cells; format: ADME, cell-based, Canis lupus familiaris; settings: dog
[17] = target: T1, Voltage-gated inwardly rectifying potassium channel KCNH2; experiment: Displacement of [3H]-dofetilide from human ERG
[18] = Solubility of compound at pH 7.4; format: physicochemical; settings: buffer
[19] = target: Sodium-dependent serotonin transporter (Homo sapiens) (UniProt P31645); experiment: Inhibition of serotonin transporter (unknown origin) expressed in cells incubated for 30 mins by amine transporter assay; format: cell-based
Chain of Sodium-dependent serotonin transporter (Homo sapiens) (P31645 whole entry, looked up): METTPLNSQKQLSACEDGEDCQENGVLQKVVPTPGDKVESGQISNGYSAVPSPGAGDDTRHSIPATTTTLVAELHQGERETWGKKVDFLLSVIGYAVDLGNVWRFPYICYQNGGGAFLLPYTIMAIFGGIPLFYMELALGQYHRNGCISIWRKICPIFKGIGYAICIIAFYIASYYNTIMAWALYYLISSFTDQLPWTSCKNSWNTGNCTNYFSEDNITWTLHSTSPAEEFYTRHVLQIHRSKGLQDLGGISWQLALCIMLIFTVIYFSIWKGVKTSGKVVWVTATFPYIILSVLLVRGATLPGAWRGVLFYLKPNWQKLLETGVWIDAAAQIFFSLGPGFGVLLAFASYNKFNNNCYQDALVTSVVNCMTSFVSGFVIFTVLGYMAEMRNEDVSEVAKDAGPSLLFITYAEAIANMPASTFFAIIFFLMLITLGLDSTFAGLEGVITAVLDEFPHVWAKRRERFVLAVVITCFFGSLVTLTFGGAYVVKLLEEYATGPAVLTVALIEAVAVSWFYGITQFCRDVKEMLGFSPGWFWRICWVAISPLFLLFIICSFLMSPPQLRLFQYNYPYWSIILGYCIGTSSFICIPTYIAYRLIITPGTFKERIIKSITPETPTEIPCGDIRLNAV

[20] = target: Sodium-dependent dopamine transporter (Homo sapiens) (UniProt Q01959); experiment: Inhibition of dopamine transporter (unknown origin) expressed in cells incubated for 60 mins by amine transporter assay; format: cell-based
Chain of Sodium-dependent dopamine transporter (Homo sapiens) (Q01959 whole entry): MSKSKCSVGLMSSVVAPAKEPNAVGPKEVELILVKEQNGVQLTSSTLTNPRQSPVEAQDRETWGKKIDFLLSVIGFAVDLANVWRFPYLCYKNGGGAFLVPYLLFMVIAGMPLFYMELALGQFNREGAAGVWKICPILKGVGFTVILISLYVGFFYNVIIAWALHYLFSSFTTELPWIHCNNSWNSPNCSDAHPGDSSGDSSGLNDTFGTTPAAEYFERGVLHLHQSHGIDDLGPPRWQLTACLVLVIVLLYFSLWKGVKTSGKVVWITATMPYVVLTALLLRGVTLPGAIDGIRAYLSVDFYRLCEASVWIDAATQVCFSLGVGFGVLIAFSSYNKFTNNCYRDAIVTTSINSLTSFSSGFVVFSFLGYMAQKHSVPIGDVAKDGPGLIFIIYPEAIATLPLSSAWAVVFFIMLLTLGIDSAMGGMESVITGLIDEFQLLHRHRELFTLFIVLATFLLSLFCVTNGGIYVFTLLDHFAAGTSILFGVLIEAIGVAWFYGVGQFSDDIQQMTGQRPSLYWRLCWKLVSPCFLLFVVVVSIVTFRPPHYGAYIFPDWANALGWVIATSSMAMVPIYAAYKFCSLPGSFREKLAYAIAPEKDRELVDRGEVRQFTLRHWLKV

[21] = target: Sodium-dependent noradrenaline transporter (Homo sapiens) (UniProt P23975); experiment: Inhibition of norepinephrine transporter (unknown origin) expressed in cells incubated for 60 mins by amine transporter assay; format: cell-based
[22] = target: T3, Alpha-1A adrenergic receptor (Homo sapiens, UniProt P35348); experiment: Agonist activity at adrenergic alpha-1A receptor (unknown origin) expressed in cells assessed as change in fluorescence measured after 24 hrs by FLIPR assay; format: functional, cell-based
T3 sequence (P35348 whole entry): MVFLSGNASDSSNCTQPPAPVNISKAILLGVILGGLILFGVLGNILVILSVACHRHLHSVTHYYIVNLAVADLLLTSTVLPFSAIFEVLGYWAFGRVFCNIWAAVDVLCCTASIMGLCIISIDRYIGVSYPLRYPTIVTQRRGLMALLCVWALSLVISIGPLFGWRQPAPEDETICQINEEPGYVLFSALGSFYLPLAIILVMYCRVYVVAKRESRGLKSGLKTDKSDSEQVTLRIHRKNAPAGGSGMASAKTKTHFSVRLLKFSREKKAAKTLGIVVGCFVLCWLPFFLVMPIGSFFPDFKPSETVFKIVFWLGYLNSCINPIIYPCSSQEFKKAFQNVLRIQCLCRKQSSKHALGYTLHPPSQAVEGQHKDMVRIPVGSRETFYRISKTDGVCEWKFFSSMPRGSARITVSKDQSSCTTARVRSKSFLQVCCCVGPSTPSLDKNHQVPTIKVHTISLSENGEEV

[23] = Cytotoxicity against human THLE cells by ATP depletion assay; format: cell-based

SMILES | EC50 (THP-1) | EC50 [1] | EC50 [2] | Emax (K562) | EC50 [3] | IC50 [4] | EC50 [5] | Emax [6] | further results
Cc1cccnc1N(C(=O)c1ccc(-c2cnn3cccnc23)cc1)[C@@H]1CCCNC1 | > 50 µM | > 10 µM | 3.7 µM | 145% | > 50 µM | 2.2 µM | 33 µM | -41% | –
Cc1cnc2c(c1)nnn2-c1ccc(C(=O)N(c2ncccc2Cl)[C@@H]2CCCNC2)cc1 | – | > 10 µM | 1.4 µM | 80% | – | – | – | – | –
CNc1cncc(-c2ccc(C(=O)N(c3ncccc3Cl)[C@@H]3CCCNC3)cc2)n1 | > 10 µM | > 10 µM | 5.6 µM | 100% | > 10 µM | 3.1 µM | 6 µM | -25% | –
Cc1ccc2nnn(-c3ccc(C(=O)N(c4ncccc4Cl)[C@@H]4CCCNC4)cc3)c2n1 | – | > 25 µM | 4.4 µM | 155% | – | 0.9 µM | – | – | –
O=C(c1ccc(-c2cnn3cccnc23)cc1)N(c1nccc2ccccc12)[C@@H]1CCCNC1 | – | > 10 µM | 0.58 µM | 206% | – | 1.3 µM | – | – | –
Cc1cnc2c(-c3ccc(C(=O)N(c4ncccc4C)[C@@H]4CCCNC4)cc3F)cnn2c1 | > 10 µM | > 10 µM | 7.8 µM | 100% | > 10 µM | 1.7 µM | 2.1 µM | -43% | EC50 [7]: 12.7 µM; EC50 (Cannabinoid receptor 1): > 10 µM; EC50 (D(1A) dopamine receptor): > 10 µM; IC50 [8]: > 25 µM; IC50 [9]: > 200 µM; IC50 [10]: 39 µM; EC50 [11]: > 10 µM; EC50 [12]: > 10 µM; logD [13]: 1.1; Ki [14]: 0.4 µM; EC50 (Histamine H1 receptor): > 10 µM; IC50 [15]: 99 µM; Papp [16]: 10.1 ×10⁻⁶ cm/s; Ki [17]: 7.2 µM; solubility [18]: 460 µM (≈ 204 µg/mL); Kb [19]: > 10 µM; Kb [20]: > 10 µM; Kb [21]: > 10 µM; EC50 [22]: > 10 µM; IC50 [23]: 204 µM
COC(=O)c1c(-c2ccc(C(=O)N(c3ncccc3C)[C@@H]3CCCNC3)cc2)cnn1C | > 50 µM | > 10 µM | 3.6 µM | 220% | > 50 µM | 2.5 µM | 8.3 µM | -35% | –
CN(C)c1cncc(-c2ccc(C(=O)N(c3ncccc3Cl)[C@@H]3CCCNC3)cc2)n1 | > 50 µM | > 10 µM | > 10 µM | – | > 50 µM | 3 µM | 39 µM | -41% | –
O=C(c1ccc(-n2nnc3cccnc32)cc1)N(c1ncccc1Cl)[C@@H]1CCCNC1 | – | > 10 µM | 4.5 µM | 100% | – | – | – | – | –
Cc1cncc(-c2ccc(C(=O)N(c3ncccc3Cl)[C@@H]3CCCNC3)cc2)n1 | > 30 µM | > 10 µM | > 10 µM | – | > 30 µM | 2.8 µM | > 30 µM | -32% | –
